Laboratory results: the OPERA property sets (Mansouri et al. 2018)

SMILES	logP
CCn1nnc(Oc2ccc(NC(=O)N(C)C)cc2)n1	1.1
CN(C)C(=O)Nc1ccc(Oc2nnnn2C(C)(C)C)c(Cl)c1	2.25
C=CCn1nnc(Oc2ccc(NC(=O)N(C)C)cc2)n1	1.65
CNC(=O)N(C)C(=O)Nc1cc(Cc2ccccc2)ccc1F	3.9
CN(C)C(=O)Nc1ccc(Oc2nnn(CCC#N)n2)cc1	0.28
CCCCCCCCn1nnnc1Oc1ccc(NC(=O)N(C)C)cc1	3.96
CN(C)C(=O)Nc1ccc(Oc2nnn(C(C)(C)C)n2)cc1	2.08
CN(C)C(=O)Nc1ccc(Oc2nnn(Cc3ccccc3)n2)cc1	2.25
CC(C)n1nnc(Oc2ccc(NC(=O)N(C)C)cc2)n1	1.45
Fc1ccccc1C1OCC2ON=C(c3ccccc3)C2CO1 (stereo unspecified)	2.35
CN(C)C(=O)Nc1ccc(Oc2nnn(C)n2)cc1	0.63
CCn1nnnc1Oc1ccc(NC(=O)N(C)C)cc1Cl	1.5
CN(C)C(=O)Nc1ccc(Oc2nnn(C3CCCCC3)n2)cc1	2.67
Cc1ccccc1C1OCC2ON=C(c3ccccc3)C2CO1 (stereo unspecified)	2.72
C#CCn1nnnc1Oc1ccc(NC(=O)N(C)C)cc1	1
c1ccc(C2=NOC3COC(c4ccccc4)OCC23)cc1 (stereo unspecified)	3.42
CCCCCCCCn1nnc(Oc2ccc(NC(=O)N(C)C)cc2)n1	4.4
C#CCn1nnc(Oc2ccc(NC(=O)N(C)C)cc2)n1	1.65
CNC(=O)N(C)C(=O)Nc1cc(C2CCCCC2)ccc1F	4.58
CN(C)C(=O)Nc1ccc(Oc2nnnn2C(C)(C)C)cc1	1.65
CN(C)C(=O)Nc1ccc(Oc2nnnn2Cc2ccccc2)cc1	1.7
CCOC(=O)Cn1nnnc1Oc1ccc(NC(=O)N(C)C)cc1	0.7

More lines, now with the values ahead:

logP	SMILES
2.4	CNC(=O)N(C)C(=O)Nc1cc(F)ccc1F
2.12	CNC(=O)N(C)C(=O)Nc1ccccc1F
3.53	CNC(=O)N(C)C(=O)Nc1cc(C(C)C)ccc1F
2.14	CNC(=O)N(C)C(=O)Nc1cc(OC)ccc1F
3.78	CNC(=O)N(C)C(=O)Nc1cc(-c2ccccc2)ccc1F
3.23	CCc1ccc(F)c(NC(=O)N(C)C(=O)NC)c1
3.96	CNC(=O)N(C)C(=O)Nc1cc(C(C)(C)C)ccc1F
3.58	CNC(=O)N(C)C(=O)Nc1cc(I)ccc1F
1.82	CNC(=O)N(C)C(=O)Nc1cc(C(C)=O)ccc1F
1.87	CNC(=O)N(C)C(=O)Nc1cc(S(=O)(=O)C(C)C)ccc1F
3.08	CNC(=O)N(C)C(=O)Nc1cc(OC(C)C)ccc1F
2.28	CNC(=O)N(C)C(=O)Nc1cc(C(=O)OC)ccc1F
4.46	CCC(CC)c1ccc(F)c(NC(=O)N(C)C(=O)NC)c1
2.3	CNC(=O)N(C)C(=O)Nc1cc([N+](=O)[O-])ccc1F
